Columns and labels:
[1] = test system: porcine gastric mucin extract (50 kDa band matched to Muc5ac mucin); test: Mucolytic activity on gastric mucin (electrophoresis, Coomassie stain); format: biochemical; conditions: for 50 kDa protein band of gastric mucin extract: 37° C., 60 minutes, versus untreated extract, hydrochloride
Method: FIG. 7 presents the effects of cysteamine bitartrate and compound 646 on porcine gastric mucin extract. One hundred microliters of gastric mucin extract (5 mg/mL) was incubated with and without cysteamine bitartrate and compound 646 separately, at 37° C. for 60 minutes.
Gastric Mucin extract solution: Mucin was prepared as stock solution of 5 mg/mL in water, in NaCl Ringer (150 mM Na^+, 4.6 mM K^+, 1 mM Ca^2+, 1 mM Mg^2+, 150 mM Cl^−, 2.5 mM PO4^x− and 10 mM glucose) pH 7.2, and in HCO3-Ringer solution (150 mM Na^+, 4.6 mM K^+, 1 mM Ca^2+, 1 mM Mg^2+, […] HCO3^−, 2.5 mM PO4^x− and 10 mM glucose) pH 8.
Mucolytic activity on gastric mucin. One hundred microliters of mucin solution were incubated with Cysteamine bitartrate or compound 646 at final concentrations from 0 to 2 mM as indicated in the text. Mixture was incubated at 37° C. for 0-1 hr. Mucolytic activity was ended with 30 microliters of SDS-sample buffer solution. Forty-five microliters of each sample/well were separated in an electrophoresis gel 4-12% Tris-Glycine. After electrophoresis gels were stained with Coomassie Blue solution.
In vitro mucolytic activity of cysteamine bitartrate and compound 646. To evaluate the mucolytic activity of cysteamine bitartrate and 2-aminoethane-1-d-1-thiol hydrochloride (Compound 646), gastric mucin extract was used as a substrate that was treated with 200 and 400 μM of cysteamine bitartrate or Compound 646 respectively.
Mass spectrometry analysis of the isolated 50 kDa protein band. Muc5ac and Muc6 mucins are two major secretory mucins found in the stomach. In order identify which of these mucins were part of the 50 kDa band, mass spectrometry was utilized. Mass spectrometry analysis of the 50 kDa protein band identified 17 unique peptides that matched with porcine Muc5ac mucin.

[2] = test system: respiratory secreted mucus; test: Mucolytic activity on respiratory secreted mucus of open porcine trachea sections (alcian blue); conditions: 2 mM, HCO3-Ringer with PGE2 (1 uM) and alcian blue (0.02%), 10 minutes at 37° C.; untreated showed clusters of secreted mucus; hydrochloride
Method: (§1) FIG. 16 provides the mucolytic activity of compounds 646 and 647 on respiratory secreted mucus. Small sections of open porcine trachea (˜2 cm^2) were covered with HCO3-Ringer solution ([…]) containing PGE2 (1 uM) and alcian blue (0.02%), with or without compounds at a 2 mM final concentration, and then incubated for 10 minutes at 37° C.
as §1, with “17” for “16”, “655” for “646”, “656” for “647”

[3] = test system: porcine airway; test: Ex vivo porcine airway models (summary statement)
Source text: Abnormal mucus accumulation in airways has deleterious, and fatal consequence in patients suffering from respiratory obstructive diseases, such as cystic fibrosis (CF), COPD and asthma. Therefore, there is a need for therapies aimed at decreasing mucus accumulation to facilitate airway mucus clearance.

[4] = test system: Muc5ac mucin from porcine airway mucus; test: Mucolytic effect on Muc5ac mucin from porcine airway mucus (western blot, densitometry); format: biochemical; conditions: 2 mM, 30 mins at 37° C.; compound preincubated in HCO3-Ringer, HCO3-Ringer/acetic acid or acetate buffer pH 4.5
Method: (§2) (Upper panel) Identification of Muc5ac mucin (black arrow) by western blot, from airway mucus sample collected in HCO3-Ringer and treated with or without 2 mM of compound 646 for 30 mins at 37° C. Lane CTRL, untreated sample as control. Lane Bic, sample treated with compound preincubated in HCO3-Ringer; lane Bic/Ac, sample treated with compound preincubated with 1:1 HCO3-Ringer/Acetic acid 0.1N; lane Ac, sample treated with compound preincubated in acetate buffer 1M, pH 4.5. Lower panel, densitometric analysis of the protein bands identified with the Muc5ac mucin antibody. Densitometric signal of the sample control (CTRL) was normalized as 100% (% arbitrary units).
as §2, with “647” for “646”, “4.5, as described under Methods.” for “4.5.”, “units). Control is pH 8, Bic 7.4, Bic/AC 6.9 AND AC 6.2” for “units).”
as §2, with “655” for “646”
as §2, with “compounds 656” for “compound 646”

2-aminoethane-1-d-1-thiol hydrochloride [Compound 646]
50 kDa protein band of gastric mucin extract ([1]; 200 μM): decrease in the 50 kDa protein band
50 kDa protein band of gastric mucin extract ([1]; 400 μM): decrease in the 50 kDa protein band
anti-mucin effect against gastric mucin, Muc5ac in particular ([1]; summary of FIG. 7 and FIG. 8): anti-mucin effect against gastric mucin
appearance of secreted mucus on trachea sections [2]: dispersed clusters of secreted mucus
accumulation of viscous mucus and mucociliary clearance [3]: prevented accumulation of viscous mucus and improves mucociliary clearance
influence of acidic and basic conditions on mucolytic activity on porcine Muc5ac mucin [4]: enhanced under acidic conditions

Source: patent US12576051B2, “Methods and composition for treating respiratory obstructive diseases” (The Regents of the University of California, priority 2019, dated 2026)
